ChEMBL document CHEMBL5625206, “Design, synthesis, and evaluation of novel pleuromutilin aryl acrylate derivatives as promising broad-spectrum antibiotics especially for combatting multi-drug resistant gram-negative bacteria” (Eur J Med Chem, 2023)
≈ marks a conversion by molar mass, not a printed value. Calls of active or inactive are those of the source. The calls are words filed in the database; no cut-off is given here.

Key:
Klebsiella pneumoniae = experiment: Antibacterial activity against multidrug-resistant Klebsiella pneumoniae 893 clinical isolate assessed as bacterial growth inhibition incubated for 24 hrs by CLSI based broth microdilution method; assay type: functional
Escherichia coli = experiment: Bactericidal activity against Escherichia coli ATCC 25922 incubated for 24 hrs by time kill assay; assay type: functional, organism-based
Mesomycoplasma hyorhinis = experiment: Anti-mycoplasma activity against Mycoplasma hyorhinis BTS-7-NCTC10130 assessed as bacterial growth inhibition incubated for 7 days; assay type: functional; details: BTS-7-NCTC10130, 168 h, time 7 day
Staphylococcus aureus [1] = experiment: Induction of cell damage in methicillin-resistant Staphylococcus aureus ATCC 33591 assessed as fold increase in extracellular ATP concentration at MIC incubated for 30 mins by fluorescence based analysis relative to control; assay type: functional; details: 0.5 h
Staphylococcus aureus [2] = experiment: Antibacterial activity against methicillin-resistant Staphylococcus aureus ATCC 33591 infected in neutropenic Kunming mouse model assessed as bacterial load reduction in liver at 10 to 20 mg/kg, ip measured after 2 days; assay type: functional, organism-based; details: dose 10-20 mg/kg, time 2.0 day
Staphylococcus aureus [3] = experiment: Antibacterial activity against methicillin-resistant Staphylococcus aureus ATCC 33591 infected in neutropenic Kunming mouse model assessed as reduction in infection-induced inflammatory cell inflammation in kidney at 10 mg/kg, ip measured after 7 days; assay type: functional, organism-based; details: time 7.0 day
Staphylococcus aureus [4] = experiment: Antibacterial activity against methicillin-resistant Staphylococcus aureus ATCC 33591 infected in neutropenic Kunming mouse model assessed as reduction in infection-induced inflammatory cell infiltration in kidney at 20 mg/kg, ip measured after 7 days; assay type: functional, organism-based; details: time 7.0 day
Staphylococcus aureus [5] = experiment: Antibacterial activity against methicillin-resistant Staphylococcus aureus ATCC 33591 infected in neutropenic Kunming mouse model assessed as reduction in infection-induced inflammatory cell infiltration in liver at 20 mg/kg, ip measured after 7 days; assay type: functional, organism-based; details: time 7.0 day
[6] = AUC (0 to t) in fasted Sprague-Dawley rat at 1 mg/kg, iv by LC-MS/MS analysis; assay type: ADME, organism-based; details: in vivo
[7] = Toxicity in fasted Sprague-Dawley rat assessed as mortality rate at 331 mg/kg, IG measured for 14 days; assay type: organism-based; details: in vivo, po, time 14 day
[8] = Toxicity in fasted Sprague-Dawley rat assessed as mortality rate at 500 mg/kg, IG measured for 14 days; assay type: organism-based; details: in vivo, po, time 14 day
[9] = Toxicity in fasted male Sprague-Dawley rat assessed as body weight at 100 mg/kg, IG measured on same day (reference value: 212.7 +/- 13.2 g); assay type: organism-based; details: in vivo, po
[10] = Toxicity in fasted female Sprague-Dawley rat assessed as body weight at 100 mg/kg, IG measured on same day (reference value: 165.2 +/- 8.1 g); assay type: organism-based; details: in vivo, po
[11] = Toxicity in fasted male Sprague-Dawley rat assessed as body weight at 224 mg/kg, IG measured on same day (reference value: 212.7 +/- 13.2 g); assay type: organism-based; details: in vivo, po
[12] = Toxicity in fasted male Sprague-Dawley rat assessed as body weight at 331 mg/kg, IG measured after 7 days (reference value: 260.5 +/- 12.7 g); assay type: organism-based; details: in vivo, po, 168 h, time 7 day
[13] = Toxicity in fasted female Sprague-Dawley rat assessed as body weight at 331 mg/kg, IG measured after 7 days (reference value: 188.2 +/- 9.2 g); assay type: organism-based; details: in vivo, po, 168 h, time 7 day
[14] = Toxicity in fasted male Sprague-Dawley rat assessed as body weight at 224 mg/kg, IG measured after 14 days (reference value: 311.2 +/- 13.6 g); assay type: organism-based; details: in vivo, po, 336 h, time 14 day
[15] = Toxicity in fasted female Sprague-Dawley rat assessed as animal growth rate at 100 mg/kg, IG measured for 14 days (reference value: 29.85 +/- 4.97 g); assay type: organism-based; details: in vivo, po, 336 h, time 14 day
[16] = Toxicity in fasted male Sprague-Dawley rat assessed as animal growth rate at 224 mg/kg, IG measured for 14 days (reference value: 46.53 +/- 3.19 g); assay type: organism-based; details: in vivo, po, 336 h, time 14 day
[17] = Toxicity in fasted male Sprague-Dawley rat assessed as animal growth rate at 331 mg/kg, IG measured for 14 days (reference value: 46.53 +/- 3.19 g); assay type: organism-based; details: in vivo, po, 336 h, time 14 day
[18] = Toxicity in fasted male Sprague-Dawley rat assessed as relative liver weight ratio at 148 mg/kg, IG measured for 14 days (reference value: 3.616 +/- 0.286); assay type: organism-based; details: in vivo, po, 336 h, time 14 day
[19] = Toxicity in fasted female Sprague-Dawley rat assessed as relative liver weight ratio at 148 mg/kg, IG measured for 14 days (reference value: 3.199 +/- 0.062); assay type: organism-based; details: in vivo, po, 336 h, time 14 day
[20] = Toxicity in fasted male Sprague-Dawley rat assessed as relative liver weight ratio at 224 mg/kg, IG measured for 14 days (reference value: 3.616 +/- 0.286); assay type: organism-based; details: in vivo, po, 336 h, time 14 day
[21] = Toxicity in fasted female Sprague-Dawley rat assessed as relative kidney weight ratio at 100 mg/kg, IG measured for 14 days (reference value: 0.802 +/- 0.031); assay type: organism-based; details: in vivo, po, 336 h, time 14 day
[22] = Toxicity in fasted male Sprague-Dawley rat assessed as relative kidney weight ratio at 148 mg/kg, IG measured for 14 days (reference value: 0.820 +/- 0.072); assay type: organism-based; details: in vivo, po, 336 h, time 14 day
[23] = Toxicity in fasted female Sprague-Dawley rat assessed as relative kidney weight ratio at 500 mg/kg, IG measured for 14 days (reference value: 0.802 +/- 0.031); assay type: organism-based; details: in vivo, po, 336 h, time 14 day
[24] = Toxicity in fasted female Sprague-Dawley rat assessed as relative heart weight ratio at 100 mg/kg, IG measured for 14 days (reference value: 0.429 +/- 0.016); assay type: organism-based; details: in vivo, po, 336 h, time 14 day
[25] = Toxicity in fasted male Sprague-Dawley rat assessed as relative heart weight ratio at 224 mg/kg, IG measured for 14 days (reference value: 0.396 +/- 0.043); assay type: organism-based; details: in vivo, po, 336 h, time 14 day
[26] = Toxicity in fasted male Sprague-Dawley rat assessed as relative lung weight ratio at 100 mg/kg, IG measured for 14 days (reference value: 0.437 +/- 0.064); assay type: organism-based; details: in vivo, po, 336 h, time 14 day
[27] = Toxicity in fasted female Sprague-Dawley rat assessed as relative lung weight ratio at 224 mg/kg, IG measured for 14 days (reference value: 0.534 +/- 0025); assay type: organism-based; details: in vivo, po, 336 h, time 14 day
[28] = Toxicity in fasted male Sprague-Dawley rat assessed as relative spleen weight ratio at 100 mg/kg, IG measured for 14 days (reference value: 0.246 +/- 0.037); assay type: organism-based; details: in vivo, po, 336 h, time 14 day
[29] = Toxicity in fasted female Sprague-Dawley rat assessed as relative ovary weight ratio at 148 mg/kg, IG measured for 14 days (reference value: 0.061 +/- 0.010); assay type: organism-based; details: in vivo, po, 336 h, time 14 day
[30] = Toxicity in fasted female Sprague-Dawley rat assessed as relative ovary weight ratio at 224 mg/kg, IG measured for 14 days (reference value: 0.061 +/- 0.010); assay type: organism-based; details: in vivo, po, 336 h, time 14 day
[31] = Toxicity in fasted female Sprague-Dawley rat assessed as relative ovary weight ratio at 331 mg/kg, IG measured for 14 days (reference value: 0.061 +/- 0.010); assay type: organism-based; details: in vivo, po, 336 h, time 14 day
Staphylococcus aureus [32] = experiment: Induction of extracellular electrical conductivity in methicillin-resistant Staphylococcus aureus ATCC 33591 at 2 times MIC incubated for 8 hrs relative to control

In the case of `C=C[C@]1(C)C[C@@H](OC(=O)COC(=O)/C=C/c2ccc(N(C)C)cc2)[C@]2(C)[C@H](C)CC[C@]3(CCC(=O)[C@H]32)[C@@H](C)[C@@H]1O`, the MIC (Klebsiella pneumoniae) is reported as 64 µg/mL (≈ 116 µM), the Activity (Escherichia coli) is reported as “Dose-Dependent Effect” and the MIC (Mesomycoplasma hyorhinis) is reported as 4 ng/mL (≈ 0.00725 µM). The “fold change (FC)” value (Staphylococcus aureus [1]) was 4.01, the Activity (Staphylococcus aureus [2]) was “Active” and the Activity (Staphylococcus aureus [3]) was “inactive”. The Activity (Staphylococcus aureus [4]) was “Active”, the Activity (Staphylococcus aureus [5]) was “Active” and the AUC(0-t) [6] was 512 ng·h/mL. For the same compound, the mortality at 336 h [7] was 0%, the mortality at 336 h [8] was 10% and the Activity [9] was 215.3 g. For the same compound, the Activity [10] was 163.6 g, the Activity [11] was 210.1 g and the Activity [12] was 268 g. The Activity [13] was 196.2 g, the Activity [14] was 304.9 g and the Activity [15] was 31.22%. For the same compound, the Activity [16] was 45.2%, the Activity [17] was 40.48% and the Ratio [18] was 3.59. It also gave a Ratio [19] of 3.193, a Ratio [20] of 3.699 and a Ratio [21] of 0.81. For the same compound, the Ratio [22] was 0.799, the Ratio [23] was 0.798 and the Ratio [24] was 0.438. It also gave a Ratio [25] of 0.38, a Ratio [26] of 0.44 and a Ratio [27] of 0.531. It also gave a Ratio [28] of 0.254, a Ratio [29] of 0.066 and a Ratio [30] of 0.073. For the same compound, the Ratio [31] was 0.067 and the Activity (Staphylococcus aureus [32]) was 25.63%.
